Where two headings read alike, the source gives them in different places.
Tests used:
[1] = Clinical Case Example #2: regulating blood glucose levels, body weight, tolerability; type: in vivo, human; details: within just a few days of using, person with type-2 diabetes on metformin
Method: Clinical Case Example #2: The therapeutic composition (i.e. fenugreek formulation) used in Clinical Case Example #1 above was also tested for efficacy on regulating blood glucose levels. The subject was a person, height of 5 feet 6 inches and with baseline a body weight of about 175 lbs. Despite long-term management of their type-2 diabetes with metformin, they still had blood glucose readings almost continuously in the low to high 200s mg/dL (e.g. 204, 228, 277) with hemoglobin A1C of 7.2%. A typical fasting blood sugar for them was 189.
Due to consistently high blood glucose levels, their endocrinologist prescribed Januvia (sitagliptin, a dipeptidyl peptidase-4 (DPP-4) inhibitor). […]
When sufficiently recovered from the pancreatitis, they started using the fenugreek formulation of this invention (combination of fenugreek, curcumin, and chromium picolinate) while they continued taking metformin. Within a few days of starting the fenugreek formulation, their blood glucose readings declined from well over 200 for most of the day, to around 180, with excursions into the mid-200s only after high-sugar meals (whereas prior to this regimen, their blood glucose was in the 200s at a steady state). Occasionally, while on the fenugreek formulation regimen, they had blood glucose readings down to 110. This was the first time in half a decade that the subject had readings as low as 110. […]

[2] = target: dipeptidyl-peptidase 4 (DPP4) (Homo sapiens, UniProt P27487); details: cited from earlier work
[3] = cited from earlier work

dipeptidyl-peptidase 4 (DPP4), sequence (P27487 whole entry, species assumed): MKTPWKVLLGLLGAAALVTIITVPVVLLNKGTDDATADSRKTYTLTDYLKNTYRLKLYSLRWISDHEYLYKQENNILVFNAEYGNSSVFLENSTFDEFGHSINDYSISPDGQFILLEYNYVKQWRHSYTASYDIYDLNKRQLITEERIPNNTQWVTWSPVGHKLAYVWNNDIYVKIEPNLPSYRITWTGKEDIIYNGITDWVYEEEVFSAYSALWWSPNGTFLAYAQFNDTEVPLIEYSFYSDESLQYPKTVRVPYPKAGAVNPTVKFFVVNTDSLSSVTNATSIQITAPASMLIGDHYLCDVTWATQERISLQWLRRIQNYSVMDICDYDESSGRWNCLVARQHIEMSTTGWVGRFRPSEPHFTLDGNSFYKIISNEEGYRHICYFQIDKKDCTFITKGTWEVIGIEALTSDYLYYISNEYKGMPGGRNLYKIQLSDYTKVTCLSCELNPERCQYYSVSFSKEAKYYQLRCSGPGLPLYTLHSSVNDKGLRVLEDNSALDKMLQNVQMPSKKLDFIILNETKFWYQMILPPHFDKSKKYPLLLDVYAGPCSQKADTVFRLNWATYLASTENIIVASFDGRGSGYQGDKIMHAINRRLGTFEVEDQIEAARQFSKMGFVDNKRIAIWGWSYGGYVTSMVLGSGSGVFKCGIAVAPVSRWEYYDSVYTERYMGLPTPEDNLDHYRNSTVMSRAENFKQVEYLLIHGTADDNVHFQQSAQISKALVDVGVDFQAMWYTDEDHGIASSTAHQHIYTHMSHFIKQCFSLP

N[C@@H](CC(=O)N1CCn2c(nnc2C(F)(F)F)C1)Cc1cc(F)c(F)cc1F [Januvia, sitagliptin]
adverse events [1]: diarrhea and signs of acute pancreatitis

COc1cc(/C=C/C(=O)CC(=O)/C=C/c2ccc(O)c(OC)c2)ccc1O [curcumin]
action on DPP4 [2]: inhibits

[Cr] [chromium]
safety ([3]; 200-1,000 μg daily for up to two years): used safely | safety ([3]; up to 1,000 μg daily for up to six months): used safely

Reference: patent US20250288634A1, “Fenugreek Formulation for Lowering Blood Glucose and Weight Loss” (priority 2024, published 2025)
